Read-outs that look alike come from different tables or passages of the source.
Assays:
[1] = test system: HCT116 homozygous MTAP knockout cells; assay: Proliferation assay (CellTiter-Glo, 10 days of treatment), HCT116 MTAP knockout; format: cell-based; conditions: Homo sapiens, HCT-116, 240 h, read-out: Proliferation HCT116MTAP_KO IC50
How it was run: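 Viability of the CRISPR/Cas9 homozygous MTAP-knockout HCT116 line was read by CellTiter-Glo after 10 days of PRMT5 inhibitor exposure, with IC50 derived from the dose response. Compound was given the day after seeding and renewed at an identical concentration when cells were split 1:10 on day 6.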

PRMT5/MEP50 complex = PRMT5/MEP50 complex (Homo sapiens (Human), UniProt O14744); assay: PRMT5:MEP50 HotSpot Assay (full-length histone H2A substrate, plus and minus MTA); format: biochemical
How it was run: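 Tritium incorporated into recombinant full-length histone H2A was counted by scintillation after stopped reactions were captured on filter paper.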

HCT116 parental cells = assay: Proliferation assay (CellTiter-Glo, 10 days of treatment), HCT116 parental; format: cell-based; conditions: Homo sapiens, HCT-116, 240 h
Protocol: (§1) Control samples were analyzed in parallel.
Briefly, on Day 0, 250 HCT116 parental or HCT116 homozygous MTAP knockout cell were seeded in 96 well plates in McCoy's 5A supplemented with 10% fetal bovine serum and pen/strep and the cells were incubated overnight at 37° C. plus 5% CO2.
The following day, cells were treated with DMSO vehicle control or a dose response of PRMT5 inhibitors and incubated at 37 C plus 5% CO2 for five days. On Day 6, the cells were trypsinized and split 1:10 into new 96-well plates with fresh medium containing the same concentration of PRMT5 inhibitor and incubated for an additional 5 days at 37° C. plus 5% CO^2.
On Day 11, the viability of the cells was measured using a CTG assay kit (CellTiter-Glo; Promega cat.no G7573) in accordance with the manufacturer's instructions. The IC50 values for each compound after 10 days of treatment were calculated using GraphPad PRISM software.

[2] = test system: PRMT5-dependent Symmetric Di-methyl Arginine signal in HCT116 homozygous MTAP knockout cells; assay: SYM11 In-Cell Western, HCT116 MTAP knockout; format: cell-based; conditions: Homo sapiens, HCT-116, 96 h, HCT116 homozygous MTAP knockout cells, 4 days of treatment, SYM11/DRAQ5 ratio; read-out: In-cell-Western (SYM11) HCT116 MTAP_KO IC50
[3] = test system: PRMT5-dependent Symmetric Di-methyl Arginine signal in HCT116 parental cells; assay: SYM11 In-Cell Western, HCT116 parental; format: cell-based; conditions: Homo sapiens, HCT-116, 96 h, 4 days of treatment, SYM11/DRAQ5 ratio
Protocol: as §1
Briefly, on Day 0, 2,000 HCT116 parental or HCT116 homozygous MTAP knockout cells were seeded in 96 well plates in McCoy's 5A supplemented with 10% fetal bovine serum and pen/strep and the cells were incubated overnight at 37° C. plus 5% CO2. The following day, cells were treated with DMSO vehicle control or a dose response of PRMT5 inhibitors, and incubated at 37° C. plus 5% CO^2 for four days.
After 4 days of treatment, the cells were fixed by adding 50 μl of 4% paraformaldehyde solution to each well and the cells were incubated for 20 min at room temperature. The paraformaldehyde solution was removed, 150 μl of ice-cold methanol was added and the plate was placed −20° C. for 10 minutes. The methanol was removed, 150 μl of Odyssey Blocking buffer+0.05% Tween20 was added and the plate was incubated at room temperature with shaking for one hour.
The primary SYM11 antibody solution was removed by aspiration and the wells were washed three consecutive times with phosphate buffered saline containing 0.1% Tween-20 (PBST).
The secondary antibody solution was removed by aspiration and the wells were washed three consecutive times with PB ST.
The SYM11 signal and the DRAQ5 signal were quantified using a Li-Cor Odyssey machine reading at […], respectively. The SYM11/DRAQ5 ratio was used to calculate the inhibition of Symmetric Dimethyl Arginine as percent of DMSO control.

[4] = IC50 + 2 μM MTA, in the presence of 2 μM MTA

Chain of PRMT5/MEP50 complex (O14744 2-637): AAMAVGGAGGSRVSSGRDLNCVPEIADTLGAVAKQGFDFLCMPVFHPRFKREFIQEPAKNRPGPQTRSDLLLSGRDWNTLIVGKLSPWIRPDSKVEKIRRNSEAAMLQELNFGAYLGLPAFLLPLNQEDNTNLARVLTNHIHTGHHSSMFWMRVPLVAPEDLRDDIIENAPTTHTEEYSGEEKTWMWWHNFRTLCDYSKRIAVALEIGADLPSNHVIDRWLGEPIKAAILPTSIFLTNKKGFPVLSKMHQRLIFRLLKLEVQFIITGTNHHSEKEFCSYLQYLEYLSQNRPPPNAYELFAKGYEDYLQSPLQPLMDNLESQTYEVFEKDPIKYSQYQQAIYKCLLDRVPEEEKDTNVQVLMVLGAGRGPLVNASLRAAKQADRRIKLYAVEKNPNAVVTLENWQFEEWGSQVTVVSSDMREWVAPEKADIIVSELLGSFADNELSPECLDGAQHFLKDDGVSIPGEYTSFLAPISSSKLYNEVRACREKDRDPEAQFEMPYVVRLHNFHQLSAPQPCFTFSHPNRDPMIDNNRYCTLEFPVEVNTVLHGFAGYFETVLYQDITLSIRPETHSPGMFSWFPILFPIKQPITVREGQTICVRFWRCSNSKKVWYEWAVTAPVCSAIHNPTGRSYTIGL
Chain of PRMT5/MEP50 complex (Q9BQA1 2-342 partner): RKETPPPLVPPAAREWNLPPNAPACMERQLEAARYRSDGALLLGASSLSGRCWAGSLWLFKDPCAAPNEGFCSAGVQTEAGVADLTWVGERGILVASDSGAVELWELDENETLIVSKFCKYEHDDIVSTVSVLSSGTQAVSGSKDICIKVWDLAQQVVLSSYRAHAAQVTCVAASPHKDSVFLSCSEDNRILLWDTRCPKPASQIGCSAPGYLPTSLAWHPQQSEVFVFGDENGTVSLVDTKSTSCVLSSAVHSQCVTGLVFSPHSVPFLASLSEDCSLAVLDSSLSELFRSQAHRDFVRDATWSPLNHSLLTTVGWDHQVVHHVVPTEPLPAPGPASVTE

SMILES | IC50 [1] | IC50 (PRMT5/MEP50 complex; [4]) | IC50 (HCT116 parental cells) | IC50 [2] | IC50 [3] | IC50 (PRMT5/MEP50 complex; in the absence of MTA, read-out: IC50)
COc1cc(-c2c(-c3ccc4c(=O)[nH]nc(CN)c4c3)cnn2C)c(C#N)cc1Cl [Example 4-130, 2-(4-(4-(aminomethyl)-1-oxo-1,2-dihydrophthalazin-6-yl)-1-methyl-1H-pyrazol-5-yl)-5-chloro-4-methoxybenzonitrile] | 756 nM | 1950 nM | > 10000 nM | 24 nM | > 10000 nM | 
Cc1cc(C#N)c(-c2c(-c3ccc4c(=O)[nH]nc(CN)c4c3)cnn2C)cc1C [Example 4-131, 2-(4-(4-(aminomethyl)-1-oxo-1,2-dihydrophthalazin-6-yl)-1-methyl-1H-pyrazol-5-yl)-4-5-dimethylbenzonitrile] | 847 nM | 1890 nM | > 10000 nM | 43 nM | 3250 nM | 
Cc1cc(-c2c(-c3ccc4c(=O)[nH]nc(CN)c4c3)cnn2C)c(C#N)cc1Cl [Example 4-132, 2-(4-(4-(aminomethyl)-1-oxo-1,2-dihydrophthalazin-6-yl)-1-methyl-1H-pyrazol-5-yl)-5-chloro-4-methylbenzonitrile] | 595 nM | 2560 nM | > 10000 nM | 24 nM | > 10000 nM | 
CC(C)c1ccc(-c2c(-c3ccc4c(=O)[nH]nc(CN)c4c3)cnn2C)cc1 [Example 4-135, 4-(aminomethyl)-6-(5-(4-isopropylphenyl)-1-methyl-1H-pyrazol-4-yl)phthalazin-1(2H)-one] | 3760 nM | 641 nM | 6610 nM | 31 nM | 3210 nM | 
Cn1ncc(-c2ccc3c(=O)[nH]nc(CN)c3c2)c1-c1cccc(OC2CCC2)c1 [Example 4-137, 4-(aminomethyl)-6-(5-(3-cyclobutoxyphenyl)-1-methyl-1H-pyrazol-4-yl)phthalazin-1(2H)-one] | 3240 nM | 810 nM | > 10000 nM | 88 nM | 5180 nM | 
Cn1ncc(-c2ccc3c(=O)[nH]nc(CN)c3c2)c1-c1ccc2ccccc2c1 [Example 4-139, 4-(aminomethyl)-6-(1-methyl-5-(naphthalen-2-yl)-1H-pyrazol-4-yl)phthalazin-1(2H)-one] | 1490 nM | 1230 nM | 5070 nM | 254 nM | 5530 nM | 
Cn1ncc(-c2ccc3c(=O)[nH]nc(CN)c3c2)c1-c1ccc(Cl)c(Cl)c1 [Example 4-140, 4-(aminomethyl)-6-(5-(3,4-dichlorophenyl)-1-methyl-1H-pyrazol-4-yl)phthalazin-1(2H)-one] | 3870 nM | 1100 nM | 6810 nM | 47 nM | > 10000 nM | 
Cn1ncc(-c2ccc3c(=O)[nH]nc(CN)c3c2)c1-c1cc(Cl)cc(Cl)c1 [Example 4-141, 4-(aminomethyl)-6-(5-(3,5-dichlorophenyl)-1-methyl-1H-pyrazol-4-yl)phthalazin-1(2H)-one] | 2090 nM | 794 nM | 5500 nM | 88 nM | 4960 nM | 
Cn1ncc(-c2ccc3c(=O)[nH]nc(CN)c3c2)c1-c1ccccc1F [Example 4-142, 4-(aminomethyl)-6-(5-(2-fluorophenyl)-1-methyl-1H-pyrazol-4-yl)phthalazin-1(2H)-one] | 1780 nM | 881 nM | 5740 nM | 49 nM | 6270 nM | 
CCOc1ccc(-c2c(-c3ccc4c(=O)[nH]nc(CN)c4c3)cnn2C)cc1C#N [Example 4-145, 5-(4-(4-(aminomethyl)-1-oxo-1,2-dihydrophthalazin-6-yl)-1-methyl-1H-pyrazol-5-yl)-2-ethoxybenzonitrile] | 2160 nM | 873 nM | 3770 nM | 190 nM | 5490 nM | 
CCOc1cccc(-c2c(-c3ccc4c(=O)[nH]nc(CN)c4c3)cnn2C)c1C#N [Example 4-146, 2-(4-(4-(aminomethyl)-1-oxo-1,2-dihydrophthalazin-6-yl)-1-methyl-1H-pyrazol-5-yl)-6-ethoxybenzonitrile] | 261 nM | 569 nM | > 10000 nM | 40 nM | 6690 nM | 
Cn1ncc(-c2ccc3c(=O)[nH]nc(CN)c3c2)c1-c1ccc2ccccc2c1C#N [Example 4-147, 2-(4-(4-(aminomethyl)-1-oxo-1,2-dihydrophthalazin-6-yl)-1-methyl-1H-pyrazol-5-yl)-1-naphthonitrile] | 50 nM | 43 nM | 1910 nM | 11 nM | 1260 nM | 280 nM
Cn1ncc(-c2ccc3c(=O)[nH]nc(CN)c3c2)c1-c1ccc(Cl)c(Cl)c1C#N [Example 4-148, 6-(4-(4-(aminomethyl)-1-oxo-1,2-dihydrophthalazin-6-yl)-1-methyl-1H-pyrazol-5-yl)-2,3-dichlorobenzonitrile] | 307 nM | 229 nM | 7750 nM | 30 nM | 8550 nM | 
Cn1ncc(-c2ccc3c(=O)[nH]nc(CN)c3c2)c1-c1ccc2ncccc2c1C#N [Example 4-149, 6-(4-(4-(aminomethyl)-1-oxo-1,2-dihydrophthalazin-6-yl)-1-methyl-1H-pyrazol-5-yl)quinoline-5-carbonitrile] | 359 nM | 282 nM | > 10000 nM | 135 nM | 6350 nM | 
Cc1cc(Cl)c(C#N)c(-c2c(-c3ccc4c(=O)[nH]nc(CN)c4c3)cnn2C)c1 [Example 4-150, 2-(4-(4-(aminomethyl)-1-oxo-1,2-dihydrophthalazin-6-yl)-1-methyl-1H-pyrazol-5-yl)-6-chloro-4-methylbenzonitrile] | 661 nM | 673 nM | > 10000 nM | 18 nM | 8390 nM | 
Cc1ccc(-c2c(-c3ccc4c(=O)[nH]nc(CN)c4c3)cnn2C)c(C#N)c1Cl [Example 4-151, 2-(4-(4-(aminomethyl)-1-oxo-1,2-dihydrophthalazin-6-yl)-1-methyl-1H-pyrazol-5-yl)-6-chloro-5-methylbenzonitrile] | 504 nM | 606 nM | > 10000 nM | 51 nM | 5810 nM | 
COc1ccc(-c2c(-c3ccc4c(=O)[nH]nc(CN)c4c3)cnn2C)c(C#N)c1 [Example 4-160, 2-(4-(4-(aminomethyl)-1-oxo-1,2-dihydrophthalazin-6-yl)-1-methyl-1H-pyrazol-5-yl)-5-methoxybenzonitrile] | 2030 nM | 1110 nM | 7700 nM | 944 nM | > 10000 nM | 
Cn1ncc(-c2ccc3c(=O)[nH]nc(CN)c3c2)c1-c1cc(C2CC2)ccc1C#N [Example 4-161, 2-(4-(4-(aminomethyl)-1-oxo-1,2-dihydrophthalazin-6-yl)-1-methyl-1H-pyrazol-5-yl)-4-cyclopropylbenzonitrile] | 617 nM | 707 nM | 6720 nM | 87.5 nM | 6560 nM | 
N#Cc1ccccc1-c1c[nH]c2ncc(-c3ccc4c(=O)[nH]nc(CN)c4c3)cc12 [Example 4-163, 2-(5-(4-(aminomethyl)-1-oxo-1,2-dihydrophthalazin-6-yl)-1H-pyrrolo[2,3-b]pyridin-3-yl)benzonitrile] | > 10000 nM | 3820 nM | > 10000 nM | > 3330 nM | > 3330 nM | 
Cn1ncc(-c2ccc3c(=O)[nH]nc(CN)c3c2)c1-c1cc(Cl)c(Cl)cc1C#N [Example 4-164, 2-(4-(4-(aminomethyl)-1-oxo-1,2-dihydrophthalazin-6-yl)-1-methyl-1H-pyrazol-5-yl)-4,5-dichlorobenzonitrile] | 583 nM | 464 nM | > 10000 nM | 93.3 nM | > 10000 nM | 

From patent US11479551B2, “MTA-cooperative PRMT5 inhibitors” (Mirati Therapeutics, Inc., priority 2019, dated 2022)
